Some test systems named below: BT-549 breast; EKVX NSCLC; HOP-62 NSCLC; MCF7 breast; MDA-MB-231 breast; OVCAR-4 ovarian; RXF 393 renal; SK-MEL-5 melanoma; SNB-19 CNS; UACC-62 melanoma.
What all share (assay): NCI tumour cell line growth inhibition, 48 h

From PubChem BioAssay (NCI) come the findings set out here.

Several values for one entry are separate records, joined by “and”; a condition that tells them apart may be missing. Identical values can stand only once.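 Briefly, cells in 96-well plates were exposed to five compound concentrations for 48 h, and endpoints were estimated by linear interpolation. GI50 = concentration required for 50% inhibition of growth. The concentration for full growth arrest is given as TGI.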

For the compound `Nc1nc(Cl)nc2c1ncn2C1OC(CO)C(O)C1F` (stereo not drawn), the GI50 with BT-549 breast was 0.664 µM; in the experiment with EKVX NSCLC it was 1.46 µM; in the experiment on HOP-62 NSCLC it was 0.109 µM; with MCF7 breast, 0.163 µM; in the experiment with MDA-MB-231 breast, 4.93 µM; with OVCAR-4 ovarian, > 82.2 µM. In addition, the GI50 in the experiment on RXF 393 renal was 12.8 µM; with SK-MEL-5 melanoma it was 0.168 µM; in the experiment on SNB-19 CNS it was 0.191 µM; with UACC-62 melanoma, 0.145 µM. Besides, the TGI with BT-549 breast is > 37.6 µM; in the experiment with EKVX NSCLC it was > 100 µM; in the experiment on HOP-62 NSCLC, 22.4 µM; in the experiment on MCF7 breast it was > 100 µM; with MDA-MB-231 breast, > 26.5 µM; with OVCAR-4 ovarian, > 100 µM. Besides, the TGI with RXF 393 renal is > 100 µM; with SK-MEL-5 melanoma, > 8.7 µM; with SNB-19 CNS, > 100 µM; in the experiment on UACC-62 melanoma it was 1.7 µM.

For `C=C(C(=O)OC)[C@@H]1CC2OC1C(=O)C(C)CCC/C(C)=C/CC[C@@]2(C)O` (stereo partly drawn), the GI50 in the experiment on BT-549 breast was 25.2 µM; with EKVX NSCLC, 63.2 µM; in the experiment with HOP-62 NSCLC it was 20.6 µM; with MCF7 breast, 43.5 µM; in the experiment with MDA-MB-231 breast it was 28.3 µM; in the experiment on OVCAR-4 ovarian, 37.9 µM. For the same compound, the GI50 in the experiment with RXF 393 renal is 18 µM; in the experiment on SK-MEL-5 melanoma, 37 µM; in the experiment on SNB-19 CNS it was > 100 µM; with UACC-62 melanoma it was 26.1 µM. Also, the TGI is 55.7 µM with BT-549 breast; > 100 µM in the experiment with EKVX NSCLC; 41.2 µM with HOP-62 NSCLC; > 100 µM in the experiment with MCF7 breast; 68 µM in the experiment on MDA-MB-231 breast; > 100 µM in the experiment on OVCAR-4 ovarian. Besides, the TGI with RXF 393 renal is 36.4 µM; in the experiment with SK-MEL-5 melanoma, > 100 µM; with SNB-19 CNS it was > 100 µM; in the experiment with UACC-62 melanoma, 74.9 µM.

Turning to `CN1CCN(C(=O)c2ccc(NC(=O)Nc3ccc(-c4nc(N5CCOCC5)c5cccn5n4)cc3)cc2)CC1`, the GI50 in the experiment with BT-549 breast was 0.104 µM; in the experiment on EKVX NSCLC, 0.042 µM; in the experiment on HOP-62 NSCLC, 0.025 µM; in the experiment on MCF7 breast it was < 0.012 µM; in the experiment with MDA-MB-231 breast it was 0.0431 µM; with OVCAR-4 ovarian, 0.0149 µM. Besides, the GI50 was 0.0307 µM in the experiment on RXF 393 renal, 0.0803 µM in the experiment on SK-MEL-5 melanoma, 0.0363 µM with SNB-19 CNS and 0.034 µM in the experiment with UACC-62 melanoma. Besides, the TGI was determined as 0.789 µM with BT-549 breast; 0.703 µM in the experiment on EKVX NSCLC; 0.232 µM with HOP-62 NSCLC; 2.73 µM in the experiment on MCF7 breast; 11.3 µM with MDA-MB-231 breast; 0.095 µM in the experiment with OVCAR-4 ovarian. Besides, the TGI with RXF 393 renal was 0.175 µM; with SK-MEL-5 melanoma, 0.394 µM; with SNB-19 CNS, 11.1 µM; in the experiment with UACC-62 melanoma, 0.189 µM.

Turning to `COc1cc(Cl)c(CC(=O)c2c[nH]c3ccccc23)cc1OC`, the TGI was > 100 µM with BT-549 breast; > 100 µM in the experiment on EKVX NSCLC; 28.7 µM with HOP-62 NSCLC; > 100 µM in the experiment on MCF7 breast; > 52.6 µM in the experiment with MDA-MB-231 breast; > 100 µM in the experiment with OVCAR-4 ovarian. The TGI with RXF 393 renal was 40.9 µM; in the experiment on SK-MEL-5 melanoma, > 100 µM; in the experiment on SNB-19 CNS it was > 95 µM; in the experiment on UACC-62 melanoma, > 100 µM.

As to `N#CC1=C(N)NC(N2CCOCC2)=NC12Nc1ccccc1O2` (stereo not drawn), the GI50 in the experiment with BT-549 breast is 43.5 µM; in the experiment with EKVX NSCLC it was > 100 µM; with HOP-62 NSCLC it was 14 µM; in the experiment on MCF7 breast, 23.3 µM; with MDA-MB-231 breast, 89.9 µM; in the experiment on OVCAR-4 ovarian, > 100 µM. Besides, the GI50 with RXF 393 renal is 61.5 µM; in the experiment with SK-MEL-5 melanoma it was 22.7 µM; in the experiment with SNB-19 CNS, 90.7 µM; in the experiment with UACC-62 melanoma, 53.9 µM. The TGI was > 100 µM with BT-549 breast; > 100 µM with EKVX NSCLC; 51.3 µM in the experiment on HOP-62 NSCLC; 64.2 µM with MCF7 breast; > 100 µM in the experiment with MDA-MB-231 breast; > 100 µM in the experiment with OVCAR-4 ovarian. Also, the TGI with RXF 393 renal, with SK-MEL-5 melanoma, in the experiment on SNB-19 CNS and in the experiment with UACC-62 melanoma was > 100 µM in each case.

As to `CCCCCCCCCCCNC=O`, the TGI was 57.5 µM in the experiment with BT-549 breast; > 100 µM in the experiment on EKVX NSCLC; > 100 µM in the experiment with HOP-62 NSCLC; > 100 µM with MCF7 breast; > 100 µM in the experiment with MDA-MB-231 breast; > 100 µM with OVCAR-4 ovarian. The TGI is > 100 µM with RXF 393 renal, 92 µM in the experiment on SK-MEL-5 melanoma, > 100 µM with SNB-19 CNS and > 100 µM in the experiment on UACC-62 melanoma.

Regarding `COc1cc(/C=C/C(=O)CC(=O)/C=C/c2cc(OC)c(O)c(OC)c2)cc(OC)c1O`, the GI50 in the experiment on BT-549 breast was 13.4 µM; in the experiment with EKVX NSCLC it was 18.7 µM; with HOP-62 NSCLC, 19.6 µM; in the experiment on MCF7 breast, 19.6 µM; in the experiment on MDA-MB-231 breast, 9.37 µM; with OVCAR-4 ovarian, 29.5 µM. The GI50 in the experiment with RXF 393 renal is 2.63 µM; with SK-MEL-5 melanoma, 13.2 µM; with UACC-62 melanoma, 5.51 µM. Further, the TGI in the experiment with BT-549 breast is 25 µM and 34.4 µM; with EKVX NSCLC, 25 µM and 71.2 µM; with HOP-62 NSCLC it was 25 µM and > 100 µM; in the experiment on MCF7 breast it was 25 µM and > 100 µM; in the experiment on MDA-MB-231 breast, 25 µM and 32.6 µM; in the experiment with OVCAR-4 ovarian, 25 µM and > 100 µM. For the same compound, the TGI with RXF 393 renal was 7.3 µM and 16.1 µM; in the experiment on SK-MEL-5 melanoma, 25 µM and 36.4 µM; with SNB-19 CNS, 25 µM and > 100 µM.

As to `CN(C)CCN1C(=O)c2cccc3c(/C=C/CN4C(=O)c5cccc6cccc(c56)C4=O)ccc(c23)C1=O`, the GI50 is 43.5 µM in the experiment on BT-549 breast; > 100 µM with EKVX NSCLC; 42 µM in the experiment with HOP-62 NSCLC; 21.1 µM with MCF7 breast; 35.9 µM in the experiment with MDA-MB-231 breast; > 100 µM in the experiment with OVCAR-4 ovarian. The GI50 is 59.2 µM in the experiment on RXF 393 renal, > 100 µM in the experiment with SK-MEL-5 melanoma, 13.9 µM in the experiment with SNB-19 CNS and 16.3 µM with UACC-62 melanoma. Moreover, the TGI in the experiment with BT-549 breast is > 100 µM; in the experiment on EKVX NSCLC it was > 100 µM; in the experiment with HOP-62 NSCLC, > 100 µM; in the experiment on MCF7 breast, 62.4 µM; with MDA-MB-231 breast, > 100 µM; in the experiment on OVCAR-4 ovarian it was > 100 µM. Moreover, the TGI with RXF 393 renal was > 100 µM; in the experiment on SK-MEL-5 melanoma, > 100 µM; in the experiment on SNB-19 CNS, 26.9 µM; in the experiment with UACC-62 melanoma it was 33.1 µM.
